From ChEMBL document CHEMBL5724914, “Linking interpersonal differences in gut microbiota composition and drug biotransformation activity” (2024)

Key:
[1] = human gut metagenome, 24 h, 2 µM
[2] = (§1) The drug is tested on Z-016 corresponding to mouse gut metagenome with ENA study accession number: PRJEB37062 and ENA sample accession number: ERS12561815 for biotransformation under anaerobic condition. The drug concentrations were measured over 9 timepoints collected between 0 and 24 hours of incubation by liquid-chromatography-coupled mass spectrometry (LC–MS); conditions: 2 µM
[3] = human gut metagenome, 24 h, 2 µM; remark: listed apart in the source
[4] = as §1, with “Z-024” for “Z-016”, “pig” for “mouse”, “ERS12561823” for “ERS12561815”; conditions: 2 µM
[5] = as §1, with “WLS-038” for “Z-016”, “human” for “mouse”, “ERS12561745” for “ERS12561815”; conditions: 2 µM
[6] = as §1, with “Z-012” for “Z-016”, “to” for “to mouse gut”, “ERS12561812” for “ERS12561815”; conditions: 2 µM
[7] = human gut metagenome, 24 h, 2 µM; remark: listed apart in the source
[8] = as §1, with “Z-027” for “Z-016”, “to” for “to mouse gut”, “ERS12561826” for “ERS12561815”; conditions: 2 µM
[9] = human gut metagenome, 24 h, 2 µM; remark: listed apart in the source
[10] = as §1, with “WLS-098” for “Z-016”, “human” for “mouse”, “ERS12561754” for “ERS12561815”; conditions: 2 µM
[11] = human gut metagenome, 24 h, 2 µM; remark: listed apart in the source
[12] = human gut metagenome, 24 h, 2 µM; remark: listed apart in the source
[13] = as §1, with “Z-029” for “Z-016”, “rat” for “mouse”, “ERS12561828” for “ERS12561815”; conditions: 2 µM
[14] = human gut metagenome, 24 h, 2 µM; remark: listed apart in the source
[15] = human gut metagenome, 24 h, 2 µM; remark: listed apart in the source
[16] = as §1, with “Z-011” for “Z-016”, “ERS12561811” for “ERS12561815”; conditions: 2 µM
[17] = as §1, with “Z-002” for “Z-016”, “rabbit” for “mouse”, “ERS12561802” for “ERS12561815”; conditions: 2 µM
[18] = as §1, with “WLS-240” for “Z-016”, “human” for “mouse”, “ERS12561773” for “ERS12561815”; conditions: 2 µM
[19] = human gut metagenome, 24 h, 2 µM; remark: listed apart in the source
[20] = as §1, with “WLS-069” for “Z-016”, “human” for “mouse”, “ERS12561748” for “ERS12561815”; conditions: 2 µM
Further: call rule not given here.

SMILES	Bacterial Biotransformation [1]	Bacterial Biotransformation [2]	Bacterial Biotransformation [3]	Bacterial Biotransformation [4]	Bacterial Biotransformation [5]	Bacterial Biotransformation [6]	Bacterial Biotransformation [7]	Bacterial Biotransformation [8]	Bacterial Biotransformation [9]	Bacterial Biotransformation [10]	Bacterial Biotransformation [11]	Bacterial Biotransformation [12]	Bacterial Biotransformation [13]	Bacterial Biotransformation [14]	Bacterial Biotransformation [15]	Bacterial Biotransformation [16]	Bacterial Biotransformation [17]	Bacterial Biotransformation [18]	Bacterial Biotransformation [19]	Bacterial Biotransformation [20]
CSc1ccc2c(c1)C(N1CCN(C)CC1)Cc1ccccc1S2.O=C(O)/C=C\C(=O)O (stereo unspecified)	Compound NOT metabolized	Compound metabolized	Compound NOT metabolized	Compound metabolized	Compound NOT metabolized	Compound NOT metabolized	Compound NOT metabolized	Compound metabolized	Compound NOT metabolized	Compound metabolized	Compound NOT metabolized	Compound NOT metabolized	Compound NOT metabolized	Compound metabolized	Compound NOT metabolized	Compound metabolized	Compound metabolized	Compound NOT metabolized	Compound NOT metabolized	–
COc1ccc(/C=C/C(=O)Nc2ccccc2C(=O)O)cc1OC	Compound NOT metabolized	Compound metabolized	–	Compound metabolized	Compound metabolized	Compound NOT metabolized	Compound NOT metabolized	Compound metabolized	Compound NOT metabolized	Compound metabolized	Compound NOT metabolized	Compound NOT metabolized	Compound NOT metabolized	Compound NOT metabolized	Compound NOT metabolized	Compound NOT metabolized	Compound metabolized	–	Compound metabolized	Compound metabolized
CCOC(=O)[C@H](CCc1ccccc1)N[C@@H](C)C(=O)N1CCC[C@H]1C(=O)O.O=C(O)/C=C\C(=O)O [ENALAPRIL MALEATE]	Compound NOT metabolized	–	Compound NOT metabolized	Compound metabolized	Compound NOT metabolized	–	Compound NOT metabolized	Compound NOT metabolized	Compound NOT metabolized	Compound NOT metabolized	Compound NOT metabolized	Compound NOT metabolized	Compound NOT metabolized	Compound NOT metabolized	Compound NOT metabolized	–	Compound metabolized	Compound NOT metabolized	Compound NOT metabolized	Compound NOT metabolized
CN1[C@@H]2CC[C@H]1C[C@@H](OC(=O)[C@H](CO)c1ccccc1)C2 [HYOSCYAMINE]	–	–	–	Compound NOT metabolized	–	Compound NOT metabolized	Compound NOT metabolized	Compound NOT metabolized	–	Compound metabolized	–	Compound NOT metabolized	Compound NOT metabolized	Compound metabolized	–	–	–	Compound metabolized	Compound metabolized	–
C#C[C@]1(OC(C)=O)CC[C@H]2[C@@H]3CCC4=CC(=O)CC[C@@H]4[C@H]3CC[C@@]21C [NORETHINDRONE ACETATE]	–	–	Compound metabolized	Compound metabolized	Compound metabolized	–	Compound metabolized	Compound metabolized	Compound metabolized	Compound metabolized	Compound metabolized	Compound metabolized	Compound metabolized	Compound NOT metabolized	Compound metabolized	Compound metabolized	Compound metabolized	Compound metabolized	–	Compound metabolized
CC(=O)O[C@H]1C(=O)[C@@]2(C)[C@H]([C@H](OC(=O)c3ccccc3)[C@]3(O)C[C@H](OC(=O)[C@H](O)[C@@H](NC(=O)c4ccccc4)c4ccccc4)C(C)=C1C3(C)C)[C@]1(OC(C)=O)CO[C@@H]1C[C@@H]2O [PACLITAXEL]	Compound NOT metabolized	Compound metabolized	–	Compound metabolized	Compound metabolized	Compound NOT metabolized	Compound NOT metabolized	Compound NOT metabolized	Compound NOT metabolized	Compound NOT metabolized	Compound NOT metabolized	Compound NOT metabolized	Compound NOT metabolized	Compound NOT metabolized	Compound NOT metabolized	Compound metabolized	Compound metabolized	Compound NOT metabolized	–	Compound metabolized

Other lines, results leading:

Bacterial Biotransformation [1]	Bacterial Biotransformation [2]	Bacterial Biotransformation [3]	Bacterial Biotransformation [4]	Bacterial Biotransformation [5]	Bacterial Biotransformation [6]	Bacterial Biotransformation [7]	Bacterial Biotransformation [8]	Bacterial Biotransformation [9]	Bacterial Biotransformation [10]	Bacterial Biotransformation [11]	Bacterial Biotransformation [12]	Bacterial Biotransformation [13]	Bacterial Biotransformation [14]	Bacterial Biotransformation [15]	Bacterial Biotransformation [16]	Bacterial Biotransformation [17]	Bacterial Biotransformation [18]	Bacterial Biotransformation [19]	Bacterial Biotransformation [20]	SMILES
Compound metabolized	Compound metabolized	Compound metabolized	Compound metabolized	Compound metabolized	Compound metabolized	–	Compound NOT metabolized	Compound metabolized	–	Compound metabolized	Compound metabolized	Compound NOT metabolized	Compound metabolized	–	Compound metabolized	Compound metabolized	–	–	Compound metabolized	COC1=C(OC)C(=O)C(CCCCCCCCCCO)=C(C)C1=O [IDEBENONE]
Compound metabolized	Compound metabolized	Compound metabolized	Compound metabolized	Compound metabolized	Compound metabolized	Compound metabolized	Compound metabolized	Compound metabolized	Compound metabolized	Compound metabolized	Compound metabolized	Compound metabolized	Compound metabolized	Compound metabolized	Compound metabolized	–	Compound metabolized	Compound metabolized	–	CC(=O)OCC(=O)NCCCOc1cccc(CN2CCCCC2)c1 [ROXATIDINE ACETATE]
Compound NOT metabolized	Compound NOT metabolized	Compound NOT metabolized	Compound metabolized	–	Compound NOT metabolized	Compound NOT metabolized	Compound NOT metabolized	–	Compound NOT metabolized	Compound NOT metabolized	Compound NOT metabolized	Compound NOT metabolized	–	Compound NOT metabolized	Compound NOT metabolized	Compound NOT metabolized	Compound NOT metabolized	–	Compound metabolized	CCCCCNC(=N)N/N=C/c1c[nH]c2ccc(OC)cc12.O=C(O)/C=C\C(=O)O [TEGASEROD MALEATE]
Compound NOT metabolized	Compound NOT metabolized	Compound NOT metabolized	Compound NOT metabolized	Compound NOT metabolized	Compound NOT metabolized	Compound NOT metabolized	Compound NOT metabolized	Compound NOT metabolized	Compound metabolized	Compound NOT metabolized	Compound NOT metabolized	Compound NOT metabolized	Compound NOT metabolized	Compound NOT metabolized	Compound metabolized	Compound NOT metabolized	Compound metabolized	Compound metabolized	–	COc1cc2nc(N3CCN(C(=O)C4CCCO4)CC3)nc(N)c2cc1OC (stereo unspecified) [TERAZOSIN]
